PMC8395244, “The Oxoglutarate Binding Site and Regulatory Mechanism Are Conserved in Ammonium Transporter Inhibitors GlnKs from Methanococcales” (International Journal of Molecular Sciences, 2021)

What was measured:
MtGlnK2 = target: T1, MtGlnK2 (Methanothermococcus thermolithotrophicus, UniProt Z9RMX6QOV2); assay: X-ray crystal structure ([…] Å); type: binding; settings: co-crystallised with 2 mM ATP, 2 mM 2OG, 2 mM MgCl2; pH 6.5; inter-subunit cleft
T1 construct: N-terminal His-tag (pET-28a(+)), tag kept (partially visible); codon-optimised gene in E. coli BL21(DE3); circa 12 kDa monomer, trimer; site between adjacent subunits

MjGlnK1^woT = target: T2, MjGlnK1^woT (Methanocaldococcus jannaschii, UniProt Q60381); assay: X-ray crystal structure ([…] Å); type: binding; settings: co-crystallised with 2 mM ATP, 2 mM 2OG, 2 mM MgCl2; pH 8.5; inter-subunit cleft
T2 construct: gene glnK1; untagged (stop codon before XhoI in pET-24b(+)); codon-optimised gene in E. coli BL21(DE3); circa 12 kDa monomer, trimer; 2J9D/2J9E are earlier structures of this protein (2J9E C-terminally tagged)
T2 sequence (Q60381 whole entry): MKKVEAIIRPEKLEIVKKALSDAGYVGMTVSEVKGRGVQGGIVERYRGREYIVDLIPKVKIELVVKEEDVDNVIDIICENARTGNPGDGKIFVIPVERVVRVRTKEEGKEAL

Structure (SMILES) | X-ray crystal structure (1.16 Å) (MtGlnK2) | X-ray crystal structure (1.20 Å) (MjGlnK1^woT)
Nc1ncnc2c1ncn2[C@@H]1O[C@H](COP(=O)(O)OP(=O)(O)OP(=O)(O)O)[C@@H](O)[C@H]1O [ATP] | MtGlnK2 and MjGlnK1^woT structures, co-crystallized with Mg-ATP and 2OG | MtGlnK2 and MjGlnK1^woT structures, co-crystallized with Mg-ATP and 2OG
O=C(O)CCC(=O)C(=O)O [2OG] | MtGlnK2 and MjGlnK1^woT structures, co-crystallized with Mg-ATP and 2OG | MtGlnK2 and MjGlnK1^woT structures, co-crystallized with Mg-ATP and 2OG
